According to patent USRE42890E1, “Furazanobenzimidazoles” (Basilea Pharmaceutica AG, priority 2003, dated 2011):

Columns and labels:
Jurkat = test: MTS proliferation assay, Jurkat; type: cell-based, human; settings: 72 h incubation, read-out: MTS proliferation assay IC 50 Jurkat
Method in brief: (§1)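 Absorbance at 492 nm after 3 h with MTS reagent gave proliferation. This followed 72 h compound exposure (final 0.3, 1, 3, 10 μM) at 37 °C and 7.5% CO2. Cells had been plated 24 h earlier in complete RPMI-1640 with 5% or 10% FCS.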

Jily = test: MTS proliferation assay, Jily; type: cell-based; settings: 72 h incubation, read-out: MTS proliferation assay IC 50 Jily
Method in brief: (§2)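 Antiproliferative read-out by MTS (3 h, A492) after 72 h compound exposure at final 0.3–10 μM (four concentrations). Cells were plated 24 h earlier in RPMI-1640 containing 5% or 10% FCS, cultured at 37 °C with 7.5% CO2.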

HT1080 = test: MTS proliferation assay, HT1080; type: cell-based, human; settings: HT1080, 72 h incubation; read-out: MTS proliferation assay IC 50 HT1080
Method in brief: as §1

HeLa = test: MTS proliferation assay, HeLa; type: cell-based, human; settings: 72 h incubation, read-out: MTS proliferation assay IC 50 HeLa
Method in brief: as §1

MRC5 = test: MTS proliferation assay, MRC5; type: cell-based; settings: MRC5, 72 h incubation; read-out: MTS proliferation assay IC 50 MRC5
Method in brief: as §2

[1] = test system: adherent cells or suspension cells; test: Hoechst 33342 nuclear staining (fraction of apoptotic nuclei); type: cell-based; set-up: key: 0 relating to no activity; 1 relating to weak activity comprising less than 70% of the cells; score 2 relating to strong activity comprising more than 70% of the cells

Nc1nonc1-c1nc2ccccc2n1CC(=O)c1ccc(C(F)(F)F)cc1 [Example 43]
IC50 (Jurkat): 100 to 1000 nM
IC50 (Jily): 100 to 1000 nM
IC50 (HT1080): 100 to 1000 nM
IC50 (HeLa): 100 to 1000 nM
IC50 (MRC5): 100 to 1000 nM
Hoechst 33342 nuclear staining score ([1]; HeLa, conc 0.01 μm): 0
Hoechst 33342 nuclear staining score ([1]; HeLa, conc 0.1 μm): 0
Hoechst 33342 nuclear staining score ([1]; HeLa, conc 1 μm): 1 (1 relating to weak activity comprising less than 70% of the cells)
Hoechst 33342 nuclear staining score ([1]; Jily, conc 0.01 μm): 0
Hoechst 33342 nuclear staining score ([1]; Jily, conc 0.1 μm): 0
Hoechst 33342 nuclear staining score ([1]; Jily, conc 1 μm): 1 (1 relating to weak activity comprising less than 70% of the cells)
Hoechst 33342 nuclear staining score ([1]; Jurkat, conc 0.01 μm): 0
Hoechst 33342 nuclear staining score ([1]; Jurkat, conc 0.1 μm): 0
Hoechst 33342 nuclear staining score ([1]; Jurkat, conc 1 μm): 2 (score 2 relating to strong activity comprising more than 70% of the cells)
Hoechst 33342 nuclear staining score ([1]; MRC5, conc 0.01 μm): 0
Hoechst 33342 nuclear staining score ([1]; MRC5, conc 0.1 μm): 0
Hoechst 33342 nuclear staining score ([1]; MRC5, conc 1 μm): 1 (1 relating to weak activity comprising less than 70% of the cells)
Hoechst 33342 nuclear staining score ([1]; PBLs, conc 0.01 μm): 0
Hoechst 33342 nuclear staining score ([1]; PBLs, conc 0.1 μm): 0
Hoechst 33342 nuclear staining score ([1]; PBLs, conc 1 μm): 0

Nc1ccc(C(=O)Cn2c(-c3nonc3N)nc3ccccc32)cc1[N+](=O)[O-] [Example 65]
IC50 (Jurkat): < 10 nM
IC50 (Jily): < 10 nM
IC50 (HT1080): < 10 nM
IC50 (HeLa): 10 to 100 nM
IC50 (MRC5): < 10 nM
Hoechst 33342 nuclear staining score ([1]; H460, conc 0.01 μm): 2 (score 2 relating to strong activity comprising more than 70% of the cells)
Hoechst 33342 nuclear staining score ([1]; H460, conc 0.1 μm): 2 (score 2 relating to strong activity comprising more than 70% of the cells)
Hoechst 33342 nuclear staining score ([1]; H460, conc 1 μm): 2 (score 2 relating to strong activity comprising more than 70% of the cells)
Hoechst 33342 nuclear staining score ([1]; HeLa, conc 0.01 μm): 0
Hoechst 33342 nuclear staining score ([1]; HeLa, conc 0.1 μm): 2 (score 2 relating to strong activity comprising more than 70% of the cells)
Hoechst 33342 nuclear staining score ([1]; HeLa, conc 1 μm): 2 (score 2 relating to strong activity comprising more than 70% of the cells)
Hoechst 33342 nuclear staining score ([1]; Jily, conc 0.01 μm): 2 (score 2 relating to strong activity comprising more than 70% of the cells)
Hoechst 33342 nuclear staining score ([1]; Jily, conc 0.1 μm): 2 (score 2 relating to strong activity comprising more than 70% of the cells)
Hoechst 33342 nuclear staining score ([1]; Jily, conc 1 μm): 2 (score 2 relating to strong activity comprising more than 70% of the cells)
Hoechst 33342 nuclear staining score ([1]; Jurkat, conc 0.01 μm): 2 (score 2 relating to strong activity comprising more than 70% of the cells)
Hoechst 33342 nuclear staining score ([1]; Jurkat, conc 0.1 μm): 2 (score 2 relating to strong activity comprising more than 70% of the cells)
Hoechst 33342 nuclear staining score ([1]; Jurkat, conc 1 μm): 2 (score 2 relating to strong activity comprising more than 70% of the cells)
Hoechst 33342 nuclear staining score ([1]; MRC5, conc 0.01 μm): 0
Hoechst 33342 nuclear staining score ([1]; MRC5, conc 0.1 μm): 2 (score 2 relating to strong activity comprising more than 70% of the cells)
Hoechst 33342 nuclear staining score ([1]; MRC5, conc 1 μm): 2 (score 2 relating to strong activity comprising more than 70% of the cells)
Hoechst 33342 nuclear staining score ([1]; PBLs, conc 0.01 μm): 0
Hoechst 33342 nuclear staining score ([1]; PBLs, conc 0.1 μm): 0
Hoechst 33342 nuclear staining score ([1]; PBLs, conc 1 μm): 0

COc1ccc(C(=O)Cn2c(-c3nonc3N)nc3ccccc32)cc1OC [Example 76]
IC50 (Jurkat): 100 to 1000 nM
IC50 (Jily): 10 to 100 nM
IC50 (HT1080): 100 to 1000 nM
IC50 (HeLa): 100 to 1000 nM
IC50 (MRC5): 100 to 1000 nM
Hoechst 33342 nuclear staining score ([1]; H460, conc 0.01 μm): 0
Hoechst 33342 nuclear staining score ([1]; H460, conc 0.1 μm): 1 (1 relating to weak activity comprising less than 70% of the cells)
Hoechst 33342 nuclear staining score ([1]; H460, conc 1 μm): 2 (score 2 relating to strong activity comprising more than 70% of the cells)
Hoechst 33342 nuclear staining score ([1]; HeLa, conc 0.01 μm): 0
Hoechst 33342 nuclear staining score ([1]; HeLa, conc 0.1 μm): 0
Hoechst 33342 nuclear staining score ([1]; HeLa, conc 1 μm): 2 (score 2 relating to strong activity comprising more than 70% of the cells)
Hoechst 33342 nuclear staining score ([1]; Jily, conc 0.01 μm): 0
Hoechst 33342 nuclear staining score ([1]; Jily, conc 0.1 μm): 2 (score 2 relating to strong activity comprising more than 70% of the cells)
Hoechst 33342 nuclear staining score ([1]; Jily, conc 1 μm): 2 (score 2 relating to strong activity comprising more than 70% of the cells)
Hoechst 33342 nuclear staining score ([1]; Jurkat, conc 0.01 μm): 0
Hoechst 33342 nuclear staining score ([1]; Jurkat, conc 0.1 μm): 2 (score 2 relating to strong activity comprising more than 70% of the cells)
Hoechst 33342 nuclear staining score ([1]; Jurkat, conc 1 μm): 2 (score 2 relating to strong activity comprising more than 70% of the cells)
Hoechst 33342 nuclear staining score ([1]; MRC5, conc 0.01 μm): 0
Hoechst 33342 nuclear staining score ([1]; MRC5, conc 0.1 μm): 0
Hoechst 33342 nuclear staining score ([1]; PBLs, conc 0.01 μm): 0
Hoechst 33342 nuclear staining score ([1]; PBLs, conc 0.1 μm): 0
Hoechst 33342 nuclear staining score ([1]; PBLs, conc 1 μm): 0

Cc1ccc(C(=O)Cn2c(-c3nonc3N)nc3ccccc32)cc1 [Example 44]
IC50 (Jurkat): < 10 nM
IC50 (Jily): 10 to 100 nM
IC50 (HT1080): 10 to 100 nM
IC50 (HeLa): 10 to 100 nM
IC50 (MRC5): 10 to 100 nM
Hoechst 33342 nuclear staining score ([1]; H460, conc 0.01 μm): 0
Hoechst 33342 nuclear staining score ([1]; H460, conc 0.1 μm): 2 (score 2 relating to strong activity comprising more than 70% of the cells)
Hoechst 33342 nuclear staining score ([1]; H460, conc 1 μm): 2 (score 2 relating to strong activity comprising more than 70% of the cells)
Hoechst 33342 nuclear staining score ([1]; HeLa, conc 0.01 μm): 0
Hoechst 33342 nuclear staining score ([1]; HeLa, conc 0.1 μm): 1 (1 relating to weak activity comprising less than 70% of the cells)
Hoechst 33342 nuclear staining score ([1]; HeLa, conc 1 μm): 2 (score 2 relating to strong activity comprising more than 70% of the cells)
Hoechst 33342 nuclear staining score ([1]; Jily, conc 0.01 μm): 0
Hoechst 33342 nuclear staining score ([1]; Jily, conc 0.1 μm): 2 (score 2 relating to strong activity comprising more than 70% of the cells)
Hoechst 33342 nuclear staining score ([1]; Jily, conc 1 μm): 2 (score 2 relating to strong activity comprising more than 70% of the cells)
Hoechst 33342 nuclear staining score ([1]; Jurkat, conc 0.01 μm): 0
Hoechst 33342 nuclear staining score ([1]; Jurkat, conc 0.1 μm): 2 (score 2 relating to strong activity comprising more than 70% of the cells)
Hoechst 33342 nuclear staining score ([1]; Jurkat, conc 1 μm): 2 (score 2 relating to strong activity comprising more than 70% of the cells)
Hoechst 33342 nuclear staining score ([1]; MRC5, conc 0.01 μm): 0
Hoechst 33342 nuclear staining score ([1]; MRC5, conc 0.1 μm): 0
Hoechst 33342 nuclear staining score ([1]; MRC5, conc 1 μm): 2 (score 2 relating to strong activity comprising more than 70% of the cells)
Hoechst 33342 nuclear staining score ([1]; PBLs, conc 0.01 μm): 0
Hoechst 33342 nuclear staining score ([1]; PBLs, conc 0.1 μm): 0
Hoechst 33342 nuclear staining score ([1]; PBLs, conc 1 μm): 0
